Measured values published in PubChem BioAssay (NCI).
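Step 1: Grow cells in 96-well plates. Step 2: Expose to compound for 48 hours at 5 concentrations. Step 3: Interpolate endpoints linearly; if unreached, use highest concentration. TGI marks complete inhibition of growth.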

Legend:
Assay in all cases: NCI tumour cell line growth inhibition, 48 h
A498 renal = tested on: A498 renal
ACHN renal = tested on: ACHN renal
CCRF-CEM leukemia = tested on: CCRF-CEM leukemia
EKVX NSCLC = tested on: EKVX NSCLC
HCC-2998 colon = tested on: HCC-2998 colon
HOP-62 NSCLC = tested on: HOP-62 NSCLC
HOP-92 NSCLC = tested on: HOP-92 NSCLC
K-562 leukemia = tested on: K-562 leukemia
MOLT-4 leukemia = tested on: MOLT-4 leukemia
NCI-H460 lung = tested on: NCI-H460 lung
OVCAR-3 ovarian = tested on: OVCAR-3 ovarian
OVCAR-5 ovarian = tested on: OVCAR-5 ovarian
SNB-19 CNS = tested on: SNB-19 CNS
SNB-75 CNS = tested on: SNB-75 CNS
SR leukemia = tested on: SR leukemia
U251 CNS = tested on: U251 CNS
UO-31 renal = tested on: UO-31 renal
SF-295 CNS = tested on: SF-295 CNS
DU-145 prostate = tested on: DU-145 prostate

Row | Structure (SMILES) | TGI (A498 renal) | TGI (ACHN renal) | TGI (CCRF-CEM leukemia) | TGI (EKVX NSCLC) | TGI (HCC-2998 colon) | TGI (HOP-62 NSCLC) | TGI (HOP-92 NSCLC) | TGI (K-562 leukemia) | TGI (MOLT-4 leukemia) | TGI (NCI-H460 lung) | TGI (OVCAR-3 ovarian) | TGI (OVCAR-5 ovarian) | TGI (SNB-19 CNS) | TGI (SNB-75 CNS) | TGI (SR leukemia) | TGI (U251 CNS) | TGI (UO-31 renal) | TGI (SF-295 CNS) | TGI (DU-145 prostate)
1 | N#C/C(c1nc2ccccc2[nH]1)=c1\s/c(=C/c2ccc(Cl)cc2)c(=O)n1-c1ccccc1 | > 100 µM | > 100 µM | > 100 µM | > 100 µM | > 100 µM | > 100 µM | > 100 µM | > 100 µM | > 100 µM | > 100 µM | > 100 µM | > 100 µM | > 100 µM | > 100 µM | > 100 µM | > 100 µM | > 100 µM |  | 
2 | CC(=O)NNc1nc(C)c(C(=O)/C=C/c2ccccc2Cl)s1 | > 100 µM | > 100 µM | > 100 µM | > 100 µM | > 100 µM | > 100 µM | > 100 µM | > 100 µM | > 100 µM | > 100 µM | > 100 µM | > 100 µM | > 100 µM | > 100 µM |  | > 100 µM | > 100 µM | > 100 µM | 
3 | C=CCC(N(C)C(=O)[C@H](Cc1ccccc1)NC(=O)OCc1ccccc1)P(=O)(Oc1ccccc1)Oc1ccccc1 (stereo partly specified) |  | > 100 µM | > 100 µM | > 100 µM | > 100 µM | > 100 µM | > 100 µM | > 100 µM | > 100 µM | > 100 µM | > 100 µM |  | > 100 µM | > 100 µM | > 100 µM | > 100 µM | > 100 µM | > 100 µM | 
4 | CCC12CCCN(Cc3ccccc3)C1c1c(n(C)c3ccccc13)C(C(=O)OC)C2 (stereo unspecified) |  | > 239 µM | > 239 µM | > 239 µM | > 239 µM | > 239 µM | > 239 µM | > 239 µM | > 239 µM | > 239 µM | 170 µM | > 239 µM | > 239 µM |  | > 239 µM | > 239 µM |  | 231 µM | 
5 | O=C1c2ccccc2OP(=O)(OCC(F)(F)F)OC1(C(F)(F)F)C(F)(F)F (stereo unspecified) | > 100 µM | > 100 µM | > 100 µM | > 100 µM | > 100 µM | > 100 µM | > 100 µM | > 100 µM | > 100 µM | > 100 µM |  | > 100 µM | > 100 µM | > 100 µM | > 100 µM | > 100 µM | > 100 µM | > 100 µM | 
6 | CCOC(=O)c1c(N)sc2c1C(C)(C(=O)OCC)CC2 (stereo unspecified) | 83 µM | > 100 µM |  | > 100 µM | > 100 µM | > 100 µM | > 100 µM | > 100 µM | > 100 µM | > 100 µM |  | > 100 µM | > 100 µM | > 100 µM | > 100 µM | > 100 µM | > 100 µM |  | 
7 | COC(=O)C(C#CCCCCC#CC(NC(=O)OCc1ccccc1)(C(=O)OC)C(F)(F)F)(NC(=O)OCc1ccccc1)C(F)(F)F (stereo unspecified) | > 100 µM | > 100 µM | > 100 µM | > 100 µM | > 100 µM | > 100 µM | > 100 µM | > 100 µM |  | > 100 µM | > 100 µM | > 100 µM | > 100 µM | > 100 µM |  | > 100 µM | > 100 µM | > 100 µM | 
8 | O=S(Nc1ccccc1)c1cccc(Cl)c1 (stereo unspecified) |  | > 100 µM | > 100 µM | > 100 µM | 76.3 µM | > 100 µM |  | > 100 µM | > 100 µM | > 100 µM | > 100 µM | > 100 µM | > 100 µM | > 100 µM | > 100 µM | > 100 µM | > 100 µM | > 100 µM | > 100 µM
9 | O=c1[nH]nc2ccccc2c1Cc1ccccc1 | > 100 µM | > 100 µM | > 100 µM | > 100 µM | > 100 µM | > 100 µM | > 100 µM | > 100 µM | > 100 µM | > 100 µM | > 100 µM | > 100 µM | > 100 µM | > 100 µM |  | > 100 µM | > 100 µM | > 100 µM | 
10 | N#Cc1c(-c2ccc([N+](=O)[O-])cc2)c(C#N)c(=O)n(NS(=O)(=O)c2ccccc2)c1-c1ccccc1 | > 100 µM | > 100 µM | > 100 µM | > 100 µM | > 100 µM | > 100 µM | > 100 µM | > 100 µM | > 100 µM | > 100 µM |  | > 100 µM | > 100 µM | > 100 µM |  | > 100 µM |  | > 100 µM | 
11 | COC(=O)CC1NC(=O)[C@@H]1C(C)O (stereo partly specified) | > 100 µM | > 100 µM | > 100 µM | > 100 µM | > 100 µM | > 100 µM |  | > 100 µM | > 100 µM | > 100 µM | > 100 µM |  | > 100 µM | > 100 µM | > 100 µM | > 100 µM | > 100 µM | > 100 µM | 
12 | Clc1ccc(N=Nc2nc3ccccc3nc2N=Nc2ccc(Cl)cc2Cl)c(Cl)c1 | > 100 µM | > 100 µM |  | > 100 µM | > 100 µM | > 100 µM | > 100 µM | > 100 µM | > 100 µM | > 100 µM | > 100 µM |  | > 100 µM | 93.4 µM | > 100 µM | > 100 µM | > 100 µM | > 100 µM | 
13 | CCCCCCCCCCCCCCCCOCC(CC(F)(F)P(=O)(OCC)OCC)OC(C)=O (stereo unspecified) | 25.8 µM | 27.3 µM |  | 44.9 µM | 22.6 µM |  | 23.1 µM | 48.9 µM | > 100 µM | 26.3 µM | 31.4 µM | 34.7 µM | 15.8 µM | 32.9 µM |  | 13.7 µM | 29.5 µM | 24.4 µM | 28.8 µM
14 | CCSc1n/c(=C\c2ccco2)c2nncn12 |  | > 100 µM | > 100 µM | > 100 µM |  | > 100 µM | > 100 µM | > 100 µM | > 100 µM |  | > 100 µM | > 100 µM | > 100 µM | > 100 µM | > 100 µM | > 100 µM | > 100 µM | > 100 µM | > 100 µM
